Results on 24 molecules are retold here after US11279712B2, “Macrocyclic compounds that inhibit MCL-1 protein” (AMGEN INC., priority 2017, dated 2022).

For experiment [1], the system named is OPM-2 human multiple myeloma cell line. The experiment can be described thus: Cell Viability Assay (OPM-2 10 FBS). As to conditions: OPM-2 cells, CellTiter-Glo, read-out: OPM-2 10% FBS IC50 IP. In kind it is cell-based. Here is the method:
Cell Viability Assay (OPM-2 10 FBS)
The human multiple myeloma cell line, OPM-2, was cultured in complete growth medium containing RPMI 1640 and 10% fetal bovine serum (FBS). Cells were seeded into 384-well plates at 3000 cells/well density in complete growth medium containing 10% FBS, and incubated for 16 h with serially diluted test compounds in a 37° C. incubator with 5% CO2. Cell viability was tested using CellTiter-Glo® assay (Promega, Madison, Wis.) according to the manufacturer recommendations. Luminescence was determined using an EnVision® Multilabel plate reader 25 min after the addition of detection reagent. IC50 values were then calculated with Xlfit using a logistical 4-parameter fit model in GraphPad Prism (GraphPad Software, San Diego, Calif.) or in Genedata Screener® (Genedata, Basel, Switzerland).

Experiment [2] addresses Mcl-1/Bim interaction (recombinant human Mcl-1 residues 171-327) (Homo sapiens (Human), UniProt Q07820). The experiment can be described thus: Cell Free Mcl-1:Bim Affinity Assay (Mcl-1 HTRF). In kind it is binding. The following applies: TR-FRET, 0.1 nM Mcl-1(171-327), 0.05 nM biotin-Bim(51-76). The protocol: Cell Free Mcl-1:Bim Affinity Assay (Mcl-1 HTRF)
The inhibition of the Mcl-1/Bim interaction was measured using a time-resolved fluorescence resonance energy transfer (TR-FRET) assay. The recombinant human Mcl-1 (C-terminally 6×His tagged Mcl-1 containing residues 171-327) was generated at Amgen Inc (Thousand Oaks, Calif.). A biotinylated peptide derived from human Bim (residues 51-76) was purchased from CPC Scientific (San Jose, Calif.). The TR-FRET assay was conducted in a 384-well white OptiPlate™ (PerkinElmer, Waltham, Mass.) in a total volume of 40 μL. The reaction mixture contained 0.1 nM Mcl-1(171-327), 0.05 nM biotin-Bim(51-76), 0.05 nM LANCES Eu-W1024 Anti-6×His (PerkinElmer), 0.072 nM Streptavidin-Xlent (Cisbio, Bedford, Mass.), and serially diluted test compounds in the binding buffer of 20 mM Hepes, pH 7.5, 150 mM NaCl, 0.016 mM Brij®35, and 1 mM dithiothreitol. Test compounds were pre-incubated with Mcl-1(171-327) and biotin-Bim (51-76) for 60 min before addition of the detection mixture (LANCE® Eu-W1024 Anti-6×His and Streptavidin-Xlent). The reaction plates were further incubated overnight and then were read on an Envision® multimode reader (PerkinElmer). Fluorescence signals were measured at 620 nm (40-nm bandwidth) and 665 nm (7.5-nm bandwidth) with a 60 μs delay after excitation at 320 nm (75-nm bandwidth). The signal ratio at 665/620 nm corresponded to the Mcl-1/Bim interaction and was used in all data analyses. The IC50 values of test compounds were determined from duplicate data by analyzing competition curves using a four-parameter sigmoidal model in GraphPad Prism (GraphPad Software, San Diego, Calif.) or in Genedata Screener® (Genedata, Basel, Switzerland).

Molecules are shown by their SMILES. Read-outs that look alike come from different tables or passages of the source.

Mcl-1/Bim interaction (recombinant human Mcl-1 residues 171-327), sequence (Q07820 171-327): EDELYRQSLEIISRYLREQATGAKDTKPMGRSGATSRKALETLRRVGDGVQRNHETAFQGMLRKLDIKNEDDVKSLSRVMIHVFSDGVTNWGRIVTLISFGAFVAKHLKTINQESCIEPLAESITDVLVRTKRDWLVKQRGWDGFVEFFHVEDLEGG

For `CC[C@@H]1CCCC[C@H](CO)[C@@H]2CC[C@H]2CN2C[C@@]3(CCCc4cc(Cl)ccc43)COc3ccc(cc32)C(=O)NS1(=O)=O` (single isomer, unassigned) [Example 71], the IC50 in experiment [1] (16 h) stood at 1950 nM; in experiment [2], 0.359 nM.
With `C[C@H]([C@H]1CCC[C@H](C)[C@@H](C)S(=O)(=O)NC(=O)c2ccc3c(c2)N(C[C@@H]2CC[C@H]21)C[C@@]1(CCCc2cc(Cl)ccc21)CO3)N1CCOCC1` (single isomer, unassigned) [Example 72], the IC50 in experiment [1] (16 h) was determined as 1990 nM; in experiment [2], 0.849 nM.
Taken in the same sequence, the figures for `C[C@@H]1[C@@H](C)CCC[C@H](C)[C@@H]2CC[C@H]2CN2C[C@@]3(CCCc4cc(Cl)ccc43)COc3ccc(cc32)C(=O)NS1(=O)=O` (single isomer, unassigned) [Example 73] were 17000 nM and 7.41 nM.
On to `C[C@@H]1[C@@H](C)CCC[C@H]([C@@H](C)O)[C@@H]2CC[C@H]2CN2C[C@@]3(CCCc4cc(Cl)ccc43)COc3ccc(cc32)C(=O)NS1(=O)=O` (single isomer, unassigned) [Example 74], for which the results for the half-maximal inhibitory concentration (IC50) in experiment [1] (16 h) and in experiment [2] were 2040 nM and 3.67 nM, respectively.
Taken in the same sequence, the figures for `CC[C@@H](O)[C@@H]1/C=C/C[C@H](C)[C@@H](C)S(=O)(=O)NC(=O)c2ccc3c(c2)N(C[C@@H]2CC[C@H]21)C[C@@]1(CCCc2cc(Cl)ccc21)CO3` (single isomer, unassigned) [Example 75] were 2440 nM and 0.808 nM.
As for `C[C@@H]1[C@@H](C)CCC[C@H](C(=O)O)[C@@H]2CC[C@H]2CN2C[C@@]3(CCCc4cc(Cl)ccc43)COc3ccc(cc32)C(=O)NS1(=O)=O` (single isomer, unassigned) [Example 77], the IC50 in experiment [1] (16 h) came out at 20700 nM; in experiment [2], 0.442 nM.
For `C[C@@H]1[C@@H](C)CCC[C@H]([C@H](O)c2ccccc2)[C@@H]2CC[C@H]2CN2C[C@@]3(CCCc4cc(Cl)ccc43)COc3ccc(cc32)C(=O)NS1(=O)=O` (single isomer, unassigned) [Example 78], the IC50 is 28300 nM in experiment [1] (16 h) and 2.36 nM in experiment [2].
Consider `C[C@H]([C@H]1CCC[C@H](C)[C@@H](C)S(=O)(=O)NC(=O)c2ccc3c(c2)N(C[C@@H]2CC[C@H]21)C[C@@]1(CCCc2cc(Cl)ccc21)CO3)N1CCOCC1` (single isomer, unassigned) [Example 79], for which the figures for the IC50 in experiment [1] (16 h) and in experiment [2] were 3000 nM and 1.59 nM, respectively.
For the molecule `COC[C@H]1CCC[C@H](C)[C@@H](C)S(=O)(=O)NC(=O)c2ccc3c(c2)N(C[C@@H]2CC[C@@H]12)C[C@@]1(CCCc2cc(Cl)ccc21)CO3` (single isomer, unassigned) [Example 80], the IC50 in experiment [1] (Homo sapiens, OPM-2, 16 h) is 3510 nM; in experiment [2], 1.6 nM.
As to `C[C@H]1CCC[C@H](CO)[C@@H]2CC[C@H]2CN2C[C@@]3(CCCc4cc(Cl)ccc43)COc3ccc(cc32)C(=O)NS(=O)(=O)C1` (single isomer, unassigned) [Example 82], the IC50 is 3650 nM in experiment [1] (16 h) and 0.772 nM in experiment [2].
For `C[C@@H]1[C@@H](C)CCC[C@H]([C@H](O)C2CCN(C)CC2)[C@@H]2CC[C@H]2CN2C[C@@]3(CCCc4cc(Cl)ccc43)COc3ccc(cc32)C(=O)NS1(=O)=O` (single isomer, unassigned) [Example 83], the results for the IC50 in experiment [1] (16 h) and in experiment [2] were 4230 nM and 0.552 nM, respectively.
Turning to `C[C@@H]1CS(=O)(=O)NC(=O)c2ccc3c(c2)N(C[C@@H]2CC[C@H]2[C@@H](CO)CC[C@@H]1C)C[C@@]1(CCCc2cc(Cl)ccc21)CO3` (single isomer, unassigned) [Example 84], the IC50 in experiment [1] (16 h) is 5840 nM; in experiment [2], 3.43 nM.
As to `CC[C@@H]1CCCC[C@H](CO)[C@@H]2CC[C@H]2CN2C[C@@]3(CCCc4cc(Cl)ccc43)COc3ccc(cc32)C(=O)NS1(=O)=O` (single isomer, unassigned) [Example 85], the figures for the IC50 in experiment [1] (16 h) and in experiment [2] were 7130 nM and 0.676 nM, respectively.
Regarding `C[C@@H]1[C@@H](C)CCC[C@@H]([C@H](O)C(F)(F)F)[C@@H]2CC[C@H]2CN2C[C@@]3(CCCc4cc(Cl)ccc43)COc3ccc(cc32)C(=O)NS1(=O)=O` (single isomer, unassigned) [Example 86], the 50% inhibitory concentration (IC50) in experiment [1] (16 h) was found to be 9230 nM; in experiment [2], 27.5 nM.
For `C[C@@H]1[C@@H](C)CCC[C@@H]([C@@H](O)C(F)(F)F)[C@@H]2CC[C@H]2CN2C[C@@]3(CCCc4cc(Cl)ccc43)COc3ccc(cc32)C(=O)NS1(=O)=O` (single isomer, unassigned) [Example 87], the IC50 stood at 9890 nM in experiment [1] (16 h) and 13.3 nM in experiment [2].
Taken in the same sequence, the figures for `C[C@@H]1[C@@H](C)CCC[C@@H]([C@@H](O)c2ccccc2)[C@@H]2CC[C@H]2CN2C[C@@]3(CCCc4cc(Cl)ccc43)COc3ccc(cc32)C(=O)NS1(=O)=O` (single isomer, unassigned) [Example 88] were above 33300 nM and 11.4 nM.
Turning to `C[C@@H]1[C@@H](C)CCC[C@H](C)[C@@H]2CC[C@H]2CN2C[C@@]3(CCCc4cc(Cl)ccc43)COc3ccc(cc32)C(=O)NS1(=O)=O` (single isomer, unassigned) [Example 89], the IC50 in experiment [1] (16 h) is above 33300 nM; in experiment [2], 14.2 nM.
On to `COCCN1CCN(C[C@H]2CCC[C@H](C)[C@@H](C)S(=O)(=O)NC(=O)c3ccc4c(c3)N(C[C@@H]3CC[C@@H]23)C[C@@]2(CCCc3cc(Cl)ccc32)CO4)CC1=O` (stereo in doubt) [Example 3], for which the 50% inhibitory concentration (IC50) in experiment [1] (Homo sapiens, OPM-2, 16 h) was 166 nM; in experiment [2], 0.257 nM.
Taken in the same sequence, the figures for `C[C@@H]1[C@@H](C)CCC[C@H](CN2CCN3CCOC[C@H]3C2)[C@@H]2CC[C@H]2CN2C[C@@]3(CCCc4cc(Cl)ccc43)COc3ccc(cc32)C(=O)NS1(=O)=O` (stereo in doubt) [Example 14] were 268 nM and 0.291 nM.
`C[C@@H]1[C@@H](C)CCC[C@H](CN2CC(N(C)C)C2)[C@@H]2CC[C@H]2CN2C[C@@]3(CCCc4cc(Cl)ccc43)COc3ccc(cc32)C(=O)NS1(=O)=O` (stereo in doubt) [Example 18]: the IC50 in experiment [1] (16 h) is 289 nM; in experiment [2], 0.84 nM.
Turning to `C[C@@H]1[C@@H](C)CCC[C@H](CN2CCN3CCN(S(C)(=O)=O)C[C@@H]3C2)[C@@H]2CC[C@H]2CN2C[C@@]3(CCCc4cc(Cl)ccc43)COc3ccc(cc32)C(=O)NS1(=O)=O` (stereo in doubt) [Example 20], the concentration for half-maximal inhibition (IC50) in experiment [1] (Homo sapiens, OPM-2, 16 h) amounted to 304 nM; in experiment [2] it was 1.16 nM.
As for `CC(=O)N1CCN2CCN(C[C@H]3CCC[C@H](C)[C@@H](C)S(=O)(=O)NC(=O)c4ccc5c(c4)N(C[C@@H]4CC[C@@H]34)C[C@@]3(CCCc4cc(Cl)ccc43)CO5)C[C@H]2C1` (stereo in doubt) [Example 25], the IC50 was found to be 329 nM in experiment [1] (16 h) and 0.252 nM in experiment [2].
Taken in the same sequence, the figures for `C[C@@H]1[C@@H](C)CCC[C@H](CN2CC(C)(N(C)C)C2)[C@@H]2CC[C@H]2CN2C[C@@]3(CCCc4cc(Cl)ccc43)COc3ccc(cc32)C(=O)NS1(=O)=O` (stereo in doubt) [Example 27] were 356 nM and 0.83 nM.
As to `C[C@@H]1[C@@H](C)CCC[C@H](CC(=O)N(C)C)[C@@H]2CC[C@H]2CN2C[C@@]3(CCCc4cc(Cl)ccc43)COc3ccc(cc32)C(=O)NS1(=O)=O` (stereo in doubt) [Example 28], the IC50 in experiment [1] (Homo sapiens, OPM-2, 16 h) turned out to be 364 nM; in experiment [2], 0.287 nM.
